Results on 2 compounds are retold here after BindingDB's records for doi:10.1016/0922-4106(95)90014-4 (University of Cagliari, 1995).

“And” between values parts separate entries of the source, which are not always exact repeats. Equal values may be shown once.

The assay addresses Gamma-aminobutyric acid receptor subunit alpha-1 (Rattus norvegicus, UniProt P62813).

Sequence of Gamma-aminobutyric acid receptor subunit alpha-1 (P62813 whole entry): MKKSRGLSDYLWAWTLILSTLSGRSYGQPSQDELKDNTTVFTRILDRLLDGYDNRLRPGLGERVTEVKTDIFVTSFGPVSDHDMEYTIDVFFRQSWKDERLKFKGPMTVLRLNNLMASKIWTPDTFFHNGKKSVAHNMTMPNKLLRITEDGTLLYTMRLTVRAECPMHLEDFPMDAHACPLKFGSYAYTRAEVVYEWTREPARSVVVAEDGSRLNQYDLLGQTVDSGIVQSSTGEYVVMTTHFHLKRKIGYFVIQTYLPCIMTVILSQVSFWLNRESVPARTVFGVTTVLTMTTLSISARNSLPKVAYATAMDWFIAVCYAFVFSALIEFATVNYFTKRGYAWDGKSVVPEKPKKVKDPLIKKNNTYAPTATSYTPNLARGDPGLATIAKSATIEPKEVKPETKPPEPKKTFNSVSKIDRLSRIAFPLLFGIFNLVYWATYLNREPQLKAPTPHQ

`Cc1nnc2ccc(-c3cccc(C(F)(F)F)c3)nn12`: the inhibitory constant (Ki) was found to be 1310 nM.
The figure for `CN1C(=O)CN=C(c2ccccc2F)c2cc([N+](=O)[O-])ccc21` [Flunitrazepam] is 1.37 nM and 1.52 nM.

In general, Ki refers to a measure of affinity in units of concentration, obtained from inhibition or displacement. A lower Ki goes with a stronger hold on the target.
